Data on 18 compounds can be found in PubChem BioAssay (NCI).

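Tested at 5 concentrations; 48 h exposure; 96-well plates; endpoints linearly interpolated, else capped at highest concentration. GI50 is the concentration that inhibits growth by half. TGI marks complete inhibition of growth.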

One experiment deals with SW-620 colon. The experiment in a line: DTP human tumour cell line panel, 48 h.
`COc1cc(-c2csc(NC(=O)c3cc(C(F)(F)F)cc(C(F)(F)F)c3)n2)cc(OC)c1OC`: the GI50 is 3.44 µM and the concentration for total growth inhibition (TGI) is over 100 µM.

`CC(C)=CCC12Cc3ccc(O)cc3C(C(C)CN1)C2C` (centres undefined) had a TGI of over 100 µM.

Consider `CC[N+]1(C)CCC(O)(c2ccc(C)cc2)C(C(=O)c2ccc(C)cc2)C1` (centres undefined), for which the TGI stood at 39.3 µM.

As to `CC(=O)c1cccc(N(/C=C/C(=O)C(F)(F)F)CC(=O)c2ccc(Cl)cc2)c1`, the GI50 was over 100 µM and the TGI is over 100 µM.

With `COc1ccc(Cl)cc1Nc1nc(C(F)(F)F)ccc1C(=O)NN`, the GI50 is 27.9 µM and the TGI was over 100 µM.

Regarding `CC(C)c1ccc2nc3ccc(C(=O)NCCN(C)C)cn3c(=O)c2c1`, the TGI is 28.6 µM.

For `C#C[C@]1(O)CC[C@H]2[C@@H]3CC=C4c5nc(Nc6ccccn6)sc5CC[C@]4(C)[C@H]3CC[C@@]21C`, the GI50 is 1.24 µM and the TGI came out at 2.91 µM.

As to `CSc1ccc(C2=Nn3c(nnc3-c3ccc(F)c(Cl)c3)SC2)cc1`, the GI50 was 11.6 µM and the TGI is over 100 µM.

In the case of `Nc1cc(N)c2nc(-c3ccccc3)c(Oc3ccc(F)cc3)nc2c1`, the GI50 was 19.5 µM and the TGI was 50.1 µM.

`Clc1ccccc1NN(Cc1ccccn1)c1ccccc1Cl` returned a TGI of 37.7 µM.

In turn, `Cc1cc2c(C(C)C)c(O)c(O)c(C=Nc3cc(C(F)(F)F)ccc3Cl)c2c(O)c1-c1c(C)cc2c(C(C)C)c(O)c(O)c(C=Nc3cc(C(F)(F)F)ccc3Cl)c2c1O` gave a TGI of over 100 µM.

For `CC(CO)[C@H]1OC(=O)C=C2[C@@]13O[C@@H]3[C@H]1OC(=O)[C@@]3(C)[C@H]4O[C@H]4C[C@@]2(C)[C@@H]13` (some centres undefined), the TGI was over 100 µM.

With `COc1cc2cc(Oc3ccc(NC(=O)c4cccc(C(F)(F)F)c4)cc3)c(C)nc2cc1OC`, the GI50 is 10.2 µM and the TGI is over 100 µM.

For `COc1cc(/C=C2\CN(C)CC3=C2Nc2nc(SC)[nH]c(=O)c2C3c2cc(OC)c(OC)c(OC)c2)cc(OC)c1OC` (centres undefined), the GI50 is 2 µM and the TGI came out at 4.41 µM.

Turning to `COc1cc(Nc2ccnc(N3CCN(c4ccnc5cc(Cl)ccc45)CC3)n2)cc(OC)c1`, the GI50 was 0.601 µM and the TGI is over 27.8 µM.

With `COC(=O)C1=C(OC(=O)c2ccc(Cl)cc2)C(C(=O)OC)[C@@]2(O)[C@@H](C(=O)OC)C(c3ccccc3C(F)(F)F)C[C@@H]1[C@@H]2C(=O)OC` (some centres undefined), the GI50 was 3.83 µM and the TGI is 21.1 µM.

In the case of `N#Cc1ccc(-c2nc(C#N)c(N)o2)cc1`, the TGI is over 10 µM.

The test system of a further experiment is HCT-116 colon. The experiment in a line: DTP human tumour cell line panel, 48 h.
Turning to `CC(C)=CCC12Cc3ccc(O)cc3C(C(C)CN1)C2C` (centres undefined), the TGI was over 100 µM.

In turn, `CC[N+]1(C)CCC(O)(c2ccc(C)cc2)C(C(=O)c2ccc(C)cc2)C1` (centres undefined) had a total growth inhibition concentration (TGI) of over 100 µM.

Regarding `CC(=O)c1cccc(N(/C=C/C(=O)C(F)(F)F)CC(=O)c2ccc(Cl)cc2)c1`, the GI50 was over 100 µM and the TGI is over 100 µM.

In the case of `COc1ccc(Cl)cc1Nc1nc(C(F)(F)F)ccc1C(=O)NN`, the GI50 was 4.76 µM and the TGI was over 100 µM.

`CC(C)c1ccc2nc3ccc(C(=O)NCCN(C)C)cn3c(=O)c2c1` displayed a TGI of 27.7 µM.

For `C#C[C@]1(O)CC[C@H]2[C@@H]3CC=C4c5nc(Nc6ccccn6)sc5CC[C@]4(C)[C@H]3CC[C@@]21C`, the GI50 was 1.12 µM and the TGI was 2.73 µM.

For the compound `CSc1ccc(C2=Nn3c(nnc3-c3ccc(F)c(Cl)c3)SC2)cc1`, the GI50 is 9.85 µM and the TGI was found to be 23.4 µM.

For the compound `NCCCCNCCCNC(=O)CNC(=O)CC(O)C(N)CCCC(NC(=O)C(CN)NC(=O)C(O)CNC(=O)CC(N)c1ccc(O)cc1)C(=O)O` (centres undefined), the TGI was over 10 µM.

For `Nc1cc(N)c2nc(-c3ccccc3)c(Oc3ccc(F)cc3)nc2c1`, the GI50 is 14.8 µM and the TGI worked out at 80.7 µM.

Consider `Clc1ccccc1NN(Cc1ccccn1)c1ccccc1Cl`, for which the TGI stood at 28.8 µM.

With `Cc1cc2c(C(C)C)c(O)c(O)c(C=Nc3cc(C(F)(F)F)ccc3Cl)c2c(O)c1-c1c(C)cc2c(C(C)C)c(O)c(O)c(C=Nc3cc(C(F)(F)F)ccc3Cl)c2c1O`, the TGI is over 100 µM.

`CC(CO)[C@H]1OC(=O)C=C2[C@@]13O[C@@H]3[C@H]1OC(=O)[C@@]3(C)[C@H]4O[C@H]4C[C@@]2(C)[C@@H]13` (some centres undefined) came in with a TGI of over 28 µM.

`COc1cc2cc(Oc3ccc(NC(=O)c4cccc(C(F)(F)F)c4)cc3)c(C)nc2cc1OC`: the GI50 was 3.22 µM and the TGI was over 100 µM.

Regarding `COc1cc(/C=C2\CN(C)CC3=C2Nc2nc(SC)[nH]c(=O)c2C3c2cc(OC)c(OC)c(OC)c2)cc(OC)c1OC` (centres undefined), the GI50 was 1.66 µM and the TGI came to 3.17 µM.

`COc1cc(Nc2ccnc(N3CCN(c4ccnc5cc(Cl)ccc45)CC3)n2)cc(OC)c1`: the GI50 was 0.496 µM and the TGI came out at 10.3 µM.

Regarding `COC(=O)C1=C(OC(=O)c2ccc(Cl)cc2)C(C(=O)OC)[C@@]2(O)[C@@H](C(=O)OC)C(c3ccccc3C(F)(F)F)C[C@@H]1[C@@H]2C(=O)OC` (some centres undefined), the GI50 is 2.92 µM and the TGI stood at 11.4 µM.

`N#Cc1ccc(-c2nc(C#N)c(N)o2)cc1` came in with a TGI of over 10 µM.

The subject of another experiment is CCRF-CEM leukemia. The experiment is described as follows: DTP human tumour cell line panel, 48 h.
As for `COc1cc(-c2csc(NC(=O)c3cc(C(F)(F)F)cc(C(F)(F)F)c3)n2)cc(OC)c1OC`, the GI50 is 2.83 µM and the TGI is over 100 µM.

For `CC(C)=CCC12Cc3ccc(O)cc3C(C(C)CN1)C2C` (centres undefined), the TGI was over 100 µM.

The compound `CC[N+]1(C)CCC(O)(c2ccc(C)cc2)C(C(=O)c2ccc(C)cc2)C1` (centres undefined) returned a TGI of 44.2 µM.

As for `CC(=O)c1cccc(N(/C=C/C(=O)C(F)(F)F)CC(=O)c2ccc(Cl)cc2)c1`, the GI50 was over 100 µM and the TGI was over 100 µM.

As to `COc1ccc(Cl)cc1Nc1nc(C(F)(F)F)ccc1C(=O)NN`, the GI50 was 0.319 µM and the TGI worked out at 2.86 µM.

For the compound `CC(C)c1ccc2nc3ccc(C(=O)NCCN(C)C)cn3c(=O)c2c1`, the TGI amounted to 32.1 µM.

Turning to `C#C[C@]1(O)CC[C@H]2[C@@H]3CC=C4c5nc(Nc6ccccn6)sc5CC[C@]4(C)[C@H]3CC[C@@]21C`, the GI50 is 0.482 µM and the TGI is 4.18 µM.
